# Tested on: hedgehog-responsive Gli-Luc reporter-construct
# Assay: Gli-Luc hedgehog pathway reporter assay in [10T1/2(s12)] cells
# Type: cell-based, murine
# Conditions: Table 1
# Description: To measure the hedgehog agonist activity of compounds, we used [10T1/2(s12)] cells containing the hedgehog-responsive Gli-Luc reporter-construct. In each MTP (MicroTiter Plate; 96-well plate), 10,000-20,000 cells were plated per well, in full media (10% FBS). After about 24-48 hr, plates were switched to low-serum media (=0.5%. FBS). Subsequently, a test compound was added at 1-5 μM in the presence or absence of octyl-hedgehog (see below). After another 24 hr, the media from the MTPs was discarded and replaced with luciferase assay-mix, containing lysis-buffer with luciferase substrate. The plates were incubated at RT for about 15-30 min and read in a luminometer.
# Plates were incubated for 48 hr before switching to low-serum. Compounds were screened at 1-2 μM in the presence of Hh protein (0.01 μg/ml; EC30=about 30% of max-induced activity).
# Plates were incubated for 24 hr before switching to low-serum. Compounds were screened at 5 μM without adding Hh protein.
# From Screen A, we identified hits identified in FIGS. 32 and 33. The 1,4-diaminocyclohexane subunit of the compounds of FIG. 32 which include this moiety have the two amino substituents disposed in a trans-relationship, e.g., both substituents equatorial on the cyclohexane subunit. These hits were confirmed in Screen B. The data shown in FIGS. 34a and 34b essentially involved dosing the two compounds in both assays (Gli-Luc & SV-Luc).
# The data from the Gli-Luc assay is converted to percent activity where full activity with Hh protein is set at 100% (FIG. 35; Table 1). […] Furthermore, the compounds show a more striking induction in the presence of hedgehog (EC50=0.2-0.3 μM, ECmax=70-90% of max induced activity with Hh protein), indicating a synergy between the compounds and Hh protein, consistent with the compounds serving as agonists for the hedgehog pathway.
row,Compound,EC50 [nM]
1,COc1ccc(CN(C(=O)c2sc3ccccc3c2Cl)C2CCC(O)CC2)cc1-c1ccc(C#N)cc1 (stereo not shown) [A′],< 10000
2,CN[C@H]1CC[C@H](N(Cc2cc(-c3ccncc3)cs2)C(=O)c2sc3cccc(F)c3c2Cl)CC1 [A′′′],< 50
3,CN[C@H]1CC[C@H](N(Cc2cccc(-c3nccs3)c2)C(=O)c2sc3ccccc3c2Cl)CC1 [B′′],< 10000
4,COc1ccc(CN(C(=O)c2sc3ccccc3c2Cl)[C@H]2CC[C@H](N)CC2)cc1-c1cccnc1 [D′],< 10000
5,CN[C@H]1CC[C@H](N(Cc2cccc(-c3ccc[nH]3)c2)C(=O)c2sc3ccccc3c2Cl)CC1 [D′′],< 10000
6,COc1ccc(CN(C(=O)c2sc3ccccc3c2Cl)[C@H]2CC[C@H](N)CC2)cc1-c1ccc(F)cc1 [E′],< 10000
7,COc1ccc(CN(C(=O)c2sc3ccccc3c2Cl)[C@H]2CC[C@H](N(C)C)CC2)cc1-c1ccc(C#N)cc1 [G′],< 10000
8,CN[C@H]1CC[C@H](N(Cc2cc(-c3ccc(C#N)cc3)cs2)C(=O)c2sc3ccccc3c2Cl)CC1 [G′′],< 100
9,CN[C@H]1CC[C@H](N(Cc2cncc(-c3cccnc3)c2)C(=O)c2sc3ccccc3c2Cl)CC1 [G′′′],< 5000
10,COc1ccc(CN(C(=O)c2sc3ccccc3c2Cl)C2CCC(N)CC2)cc1-c1ccc(C(C)=O)cc1 (stereo not shown) [H],< 1000
11,COc1ccc(CN(C(=O)c2sc3ccccc3c2Cl)[C@H]2CC[C@H](N)CC2)cc1Br [H′],> 10000
12,CN[C@H]1CC[C@H](N(Cc2cccc(-c3ccc(N(C)C)nc3)c2)C(=O)c2sc3ccccc3c2Cl)CC1 [H′′],< 100
13,CN[C@H]1CC[C@H](N(Cc2cccc(-c3ccncc3)c2)C(=O)c2sc3ccccc3c2Cl)CC1 [H′′′],< 50
14,COc1ccc(CN(C(=O)c2sc3ccccc3c2Cl)C2CCC(N)CC2)cc1-c1ncccn1 (stereo not shown) [I],> 10000
15,CN[C@H]1CC[C@H](N(Cc2cccc(-c3ccc(C#N)cc3)c2)C(=O)c2sc3ccccc3c2Cl)CC1 [I′],< 1000
16,CN[C@H]1CC[C@H](N(Cc2cc(-c3ccc(S(N)(=O)=O)s3)cs2)C(=O)c2sc3ccccc3c2Cl)CC1 [I′′],< 500
17,CN[C@H]1CC[C@H](N(Cc2ccc(OC)c(-c3ccc(C#N)cc3)c2)C(=O)c2sc3cc(F)ccc3c2Cl)CC1 [J′],< 1000
18,CN[C@H]1CC[C@H](N(Cc2ccc(OC)c(-c3ccc(C#N)cc3)c2)C(=O)c2sc3ccccc3c2C)CC1 [K′],< 10000
19,CN[C@H]1CC[C@H](N(Cc2cccc(-c3ccc(S(=O)(=O)NC(C)(C)C)s3)c2)C(=O)c2sc3ccccc3c2Cl)CC1 [L′′],< 1000
20,CN[C@H]1CC[C@H](N(Cc2ccc(OC)c(-c3ccc(C#N)cc3)c2)C(=O)c2sc3sccc3c2Cl)CC1 [L′′′],< 5000
21,CN[C@H]1CC[C@H](N(Cc2cccc(-c3ccc(S(=O)(=O)N(C)C)s3)c2)C(=O)c2sc3ccccc3c2Cl)CC1 [M′′],< 1000

row,Compound,EC50 [nM]
1,CN[C@H]1CC[C@H](N(Cc2ccnc(-c3ccc(C#N)cc3)c2)C(=O)c2sc3ccccc3c2Cl)CC1 [M′′′],< 500
2,CNC1CCC(N(Cc2cccc(-c3ccc(C)nc3)c2)C(=O)c2sc3ccccc3c2Cl)CC1 (stereo not shown) [N],< 1000
3,CN[C@H]1CC[C@H](N(Cc2cccc(-c3cccnc3)n2)C(=O)c2sc3ccccc3c2Cl)CC1 [N′′],< 1000
4,CN[C@H]1CC[C@H](N(Cc2ccnc(-c3ccc(S(N)(=O)=O)s3)c2)C(=O)c2sc3ccccc3c2Cl)CC1 [N′′′],< 5000
5,CN[C@H]1CC[C@H](N(Cc2ccc(OC)c(-c3ccc(C#N)cc3)c2)C(=O)c2sc3cccc(C)c3c2Cl)CC1 [O′′′],< 1000
6,CNC1CCC(N(Cc2cccc(-c3cnccn3)c2)C(=O)c2sc3ccccc3c2Cl)CC1 (stereo not shown) [P],< 1000
7,CN[C@H]1CC[C@H](N(Cc2cc(-c3ccco3)cs2)C(=O)c2sc3ccccc3c2Cl)CC1 [P′′],< 10000
8,CN[C@H]1CC[C@H](N(Cc2ccnc(-c3cccnc3)c2)C(=O)c2sc3ccccc3c2Cl)CC1 [S′′′],< 1000
9,Cc1ccc(-c2cccc(CN(C(=O)c3sc4ccccc4c3Cl)C3CCC(N)CC3)c2)cn1 (stereo not shown) [T],< 10000
10,CN[C@H]1CC[C@H](N(Cc2cc(Cl)nc(Cl)c2)C(=O)c2sc3ccccc3c2Cl)CC1 [T′′′],< 1000
11,CN[C@H]1CC[C@H](N(Cc2cccc(-c3nccnc3C)c2)C(=O)c2sc3ccccc3c2Cl)CC1 [U′],< 1000
12,CN[C@H]1CC[C@H](N(Cc2cc(-c3cccnc3)cs2)C(=O)c2sc3c(F)ccc(F)c3c2Cl)CC1 [V′′],< 5
13,CNC1CCC(N(Cc2cccc(I)c2)C(=O)c2sc3ccccc3c2Cl)CC1 (stereo not shown) [W],< 10000
14,CN[C@H]1CC[C@H](N(Cc2cccc(N3CCOCC3)c2)C(=O)c2sc3ccccc3c2Cl)CC1 [W′],< 10000
15,CN[C@H]1CC[C@H](N(Cc2cc(-c3ccncc3)cs2)C(=O)c2sc3c(F)ccc(F)c3c2Cl)CC1 [W′′],< 5
16,CN[C@H]1CC[C@H](N(Cc2cccc(Nc3ccccn3)c2)C(=O)c2sc3ccccc3c2Cl)CC1 [X′],< 10000
17,COc1ccc(CN(C(=O)c2sc3ccccc3c2Cl)C2CCC(N)CC2)cc1-c1cccnc1 (stereo not shown) [Y],< 10000
18,CN[C@H]1CC[C@H](N(Cc2cccc(N3CCC4(CC3)OCCO4)c2)C(=O)c2sc3ccccc3c2Cl)CC1 [Y′],< 10000
19,CN[C@H]1CC[C@H](N(Cc2ccc(OC)c(-c3ccc(C#N)cc3)c2)C(=O)c2sc3cccc(F)c3c2Cl)CC1 [Y′′],< 50
20,CN[C@H]1CC[C@H](N(Cc2cccc(C#N)c2)C(=O)c2sc3ccccc3c2Cl)CC1 [Z′],< 10000

# Other lines, results leading:
row,EC50 [nM],Compound
1,< 10000,CN[C@H]1CC[C@H](N(Cc2scc(-c3cccnc3)c2C)C(=O)c2sc3ccccc3c2Cl)CC1 [A′′]
2,< 1000,NC1CCC(N(Cc2cccc(-c3cccnc3)c2)C(=O)c2sc3ccccc3c2Cl)CC1 (stereo not shown) [Compound C]
3,< 10000,COc1ccc(CN(C(=O)c2sc3ccccc3c2C)C2CCC(N)CC2)cc1-c1ccc(C#N)cc1 (stereo not shown) [Compound E]
4,< 1000,CNC1CCC(N(Cc2ccc(C)c(-c3ccc(C#N)cc3)c2)C(=O)c2sc3ccccc3c2Cl)CC1 (stereo not shown) [Compound S]
5,< 10000,COc1ccc(CN(C(=O)c2sc3ccccc3c2Cl)[C@H]2CC[C@H](N)CC2)cc1-c1ccsc1 [C′]
6,< 10000,CN[C@H]1CC[C@H](N(Cc2cccc(Oc3ccccc3)c2)C(=O)c2sc3ccccc3c2Cl)CC1 [C′′]
7,< 50,CN[C@H]1CC[C@H](N(Cc2ccc(OC)c(-c3ccc(C#N)cc3)c2)C(=O)c2sc3ccc(F)c(F)c3c2Cl)CC1 [D′′′]
8,< 10000,CN[C@H]1CC[C@H](N(Cc2ccc3c(c2)CCO3)C(=O)c2sc3ccccc3c2Cl)CC1 [E′′]
9,< 10000,NC1CCC(N(Cc2ccc(-c3nccs3)cc2)C(=O)c2sc3ccccc3c2Cl)CC1 (stereo not shown) [F]
10,< 10000,COc1ccc(CN(C(=O)c2sc3ccccc3c2Cl)[C@H]2CC[C@H](N)CC2)cc1-c1ccccc1 [F′]
11,< 50,CN[C@H]1CC[C@H](N(Cc2ccc(OC)c(-c3ccc(C#N)cc3)c2)C(=O)c2sc3c(F)cc(F)cc3c2Cl)CC1 [F′′′]
12,< 1000,NC1CCC(N(Cc2cc(-c3ccc(F)cc3)cs2)C(=O)c2sc3ccccc3c2Cl)CC1 (stereo not shown) [J]
13,< 1000,COc1ccc(-c2cc(CN(C(=O)c3sc4ccccc4c3Cl)C3CCC(N)CC3)ccc2OC)cc1 (stereo not shown) [K]
14,< 5000,CN[C@H]1CC[C@H](N(Cc2cncc(-c3ccc(S(N)(=O)=O)s3)c2)C(=O)c2sc3ccccc3c2Cl)CC1 [K′′′]
15,< 1000,CNC1CCC(N(Cc2cccc(-c3ccncc3)c2)C(=O)c2sc3ccccc3c2Cl)CC1 (stereo not shown) [M]
16,< 1000,CN[C@H]1CC[C@H](N(Cc2cccc(-c3ccc(S(=O)(=O)NC(C)=O)s3)c2)C(=O)c2sc3ccccc3c2Cl)CC1 [O′′]
17,< 1000,CNC1CCC(N(Cc2cccc(-c3ccccn3)c2)C(=O)c2sc3ccccc3c2Cl)CC1 (stereo not shown) [Q]
18,< 1000,CN[C@H]1CC[C@H](N(Cc2ccnc(-c3ccc(N)nc3)c2)C(=O)c2sc3ccccc3c2Cl)CC1 [Q′′′]
19,< 1000,CN[C@H]1CC[C@H](N(Cc2cccc(-c3ccc(S(=O)(=O)n4c(C)ccc4C)s3)c2)C(=O)c2sc3ccccc3c2Cl)CC1 [R′′]
20,< 1000,CN[C@H]1CC[C@H](N(Cc2ccnc(C(F)(F)F)c2)C(=O)c2sc3ccccc3c2Cl)CC1 [R′′′]
21,< 10000,CN[C@H]1CC[C@H](N(Cc2cncc(-c3ccc(C#N)cc3)c2)C(=O)c2sc3ccccc3c2Cl)CC1 [S′′]
22,< 10000,CNC1CCC(N(Cc2ccc(OC)c(I)c2)C(=O)c2sc3ccccc3c2Cl)CC1 (stereo not shown) [U]
23,< 1000,CN[C@H]1CC[C@H](N(Cc2ccccn2)C(=O)c2sc3c(F)ccc(F)c3c2Cl)CC1 [U′′′]
24,< 1000,CN[C@H]1CC[C@H](N(Cc2cccc(-c3ccc(OC)nc3)c2)C(=O)c2sc3ccccc3c2Cl)CC1 [V′]
25,< 10000,COc1ccc(CN(C(=O)c2sc3ccccc3c2Cl)C2CCC(N)CC2)cc1-c1cccc(C#N)c1 (stereo not shown) [X]
26,< 10000,COc1ccc(CN(C(=O)c2sc3ccccc3c2Cl)C2CCC(N)CC2)cc1-c1nccs1 (stereo not shown) [Z]

# Source: patent US8129425B2, “Small organic molecule regulators of cell proliferation” (Curis, Inc., priority 2000, dated 2012)
